The values that follow come from patent US20250134851A1 (priority 2021, published 2025).

Some results are limits rather than exact numbers.

The format of series [1] is physicochemical. Particulars: pH 7.
Series [2] relates to hyperhidrosis (hand sweating). On the set-up: species or system human. As to conditions: in vivo.
Series [3] deals with skin wrinkles under the eyes. Set-up: species or system human. As to conditions: in vivo.
For series [4], the system named is PC12 cells. In kind it is cell-based.
In series [5] the test system is sweating area of hind paw of ICR mice. Particulars: mouse, in vivo, 0.8 mg/kg.

As to `O=c1c(O)c(-c2cc(O)c(O)c(O)c2)oc2cc(O)cc(O)c12` [Myricetin, myricetin], the Residual amount in series [1] is given as <<10%. The Sweat weight in series [2] turned out to be 55%. In series [3], the “Reduction of skin wrinkle dermal density (%)” value (from here on “Reduction … (%)”) was found to be 48%.
`COc1cc(-c2oc3cc(O)cc(O)c3c(=O)c2O)cc(O)c1O` [Laricitrin, laricitrin]: the Residual amount in series [1] is reported as <<10%. The same compound returned a Sweat weight in series [2] of 52%. The “Reduction … (%)” value in series [3] was determined as 38%.
For the compound `COc1cc(-c2oc3cc(O)cc(O)c3c(=O)c2O)cc(OC)c1O` [Syringetin, syringetin], the Residual amount in series [1] was <<10%. The Sweat weight in series [2] stood at 53%. In addition, the “Reduction … (%)” value in series [3] amounted to 37%.
In the case of `CC(=O)Oc1c(-c2cc(O)c(O)c(O)c2)oc2cc(O)cc(O)c2c1=O` [3-Acetyl-Myricetin, 3-acetyl-myricetin], the “inhibition of acetylcholine release” value in series [4] is listed as “inhibit acetylcholine release”. In series [1], the Residual amount entry is listed as “≈100%”. The same compound showed a Sweat weight in series [2] of 28%. In series [5], the “sweating area relative to control” value is “improved effect to a degree that the previously reported myricetin derivatives cannot provide”. Further, in series [3], the “Reduction … (%)” value is given as 78%.
Consider `COc1cc(O)c2c(=O)c(OC)c(-c3cc(OC)c(OC)c(OC)c3)oc2c1` [Combretol, combretol], for which the Residual amount in series [1] is <<10%. In series [2], this compound yielded a Sweat weight of 56%. In addition, the “Reduction … (%)” value in series [3] was determined as 36%.
